Legend:
[1] = tested on: HepG2 cells; test: Confocal microscopy: lipid droplets in oleate induced HepG2 cells; format: cell-based; parameters: key to Reduction in Lipid Droplets: + = slight or in insignificant; ++ = Moderate; +++ and ++++ = active; +++ and ++++ = active; +++++ = very active; settings: for Reduction in Lipid Droplets: oleate induced HepG2 cells, score; for Number of lipid droplets: HepG2 cells, 250 μM oleate induction
Method: (§1) To select the compounds capable of inhibiting the ubiquitination of ATGL by COP1 by targeting the VP motif, confocal microscopy was performed with the provided molecules. If the compound was effective in inhibiting the interaction, there would be a reduction in the number of fat droplets in the cells after treatment. […] With this rationale in mind, HepG2 cells were induced to accumulate lipid droplets after treatment with 250 µM of oleate and 10 μM of the specific compounds were added. The potential of the compounds to bring about a reduction in the number of fat droplets was then checked by comparison with oleate induced cells by counting number of droplets of approximately 20 cells from each treatment and calculating the average number of lipid droplets of each cell. The selected compounds were then subjected to dose dependent treatments and the ones which could maintain its potency to reduce fat droplets at lower doses were then selected for western blot analysis. The compound which could reduce the number of fat droplets in the cells are expected to raise the levels of ATGL since they are likely to deter COP1 from ubiquitinating ATGL. This increase will be visible only in the protein level and gene expression is likely to remain unchanged since ubiquitination is a […] modification. Thus, western blot was performed to check ATGL levels in the cells with the selected molecules.
HepG2 cells were plated in confocal dishes (SPL, Genetix Biotech Asia Pvt. Ltd.). The cells were allowed to adhere and divide for 16 hours. 10 μM for initial screening and 10 nM, 20 nM, 50 nM, 100 nM, 200 nM, 500 nM, 1 μM and 5 μM for dose dependent assays of the compounds 9 and 107 were dissolved in DMSO and added to the cells. 250 μM of oleate was used for induction. BSA (Sigma Aldrich) was used as a negative control. Post 24 hours of treatment, media was decanted from the cells and washed with 1×PBS solution to remove any remnant. 200 μl of staining solution containing 200 ng/ml BODIPY (Invitrogen) and 25 µg/ml HOECKST342 (Invitrogen) were added to the cells and incubated at 37° C. for 30 minutes under dark conditions. Cells were washed 3 times with 1×PBS to remove excess stain. FLUOVIEW FV10i (Olympus) was used to visualise the cells.

[2] = tested on: ATGL; test: Western blot of ATGL level in HepG2 cells; format: cell-based; parameters: key to Increase in ATGL level: + = slight or in insignificant; ++ = Moderate; +++ and ++++ = active; +++ and ++++ = active; +++++ = very active; settings: for Increase in ATGL level: HepG2 cells, score; for Increase in ATGL level / ATGL level in HepG2 cells: western blot; for ATGL level in HepG2 cells: 24 hours, 10 μM screening or 50 nM-5 μM dose dependent; for EC50: fold increase of ATGL by densitometry, as % of 1.6 fold maximum with siCOP1, doses 10-5000 nM, read-out: EC50 (in-vitro)
Method: as §1
HepG2 cells were treated with the compounds 9, 10, 11, 17, 18, 23, 24, 115, 123, 127, 139,107, 171, 179, 73, 187, 211, 215, 219, 223, 232, 238, 241, 244, 258, 299, 308, and 333a, (10 μM for initial screening and 50 nM, 100 nM, 200 nM, 500 nM, 1 μM and 5 μM for dose dependent assays) for 24 hours. After removing media from the cells, the wells were washed with 1×PBS twice to remove any remnant media. Cells were then lysed in lysis buffer containing 50 mM Tris-HCl (pH 7.4), 100 mM NaCl, 1 mM EDTA, 1 mM EGTA, 1% Triton X-100 and protease inhibitor cocktail (Millipore, Billierica, MA, USA). Following centrifugation at 20,000 g for 20 minutes, the protein solution was extracted from the cells. Protein was estimated using Bradford assay. Bradford's reagent (BioRad) was diluted in 1:4 ratio in double distilled water. 2 μl of protein sample was added to 100 μl of the reagent and absorbance was measured at 595 nm. […] of protein was diluted in lysis buffer. 1× loading buffer diluted from 5× stock containing 250 mM Tris-HCl (pH 6.8), 10% SDS, 50% glycerol, 0.1% bromophenol Blue and 10% β-mercaptoethanol was added. The protein samples were then heated at 95° C. for 10 minutes, cooled and centrifuged at 12,000 g for 2 minutes prior to loading.
For western blotting, the proteins were resolved in 10% SDS PAGE (discontinuous buffer system). 1× running buffer containing SDS, Tris Base and Glycine was used to run the gel at 80V for approximately 2 hours. Transfer was done using PVDF membrane (Millipore) having pore size of 0.45 μm. 1× transfer buffer containing Tris-Base, Glycine and 20% methanol was used for wet transfer. Transfer was done at 90V for 3 hours. Following transfer, the PVDF membrane containing the proteins were washed in 1×PBST comprising of 1×PBS and 1% Tween 20 (Sigma Aldrich). The membrane was then incubated for 1 hour at room temperature in 5% skim milk powder to block the non-specific sites. Following multiple washes with 1×PBST to wash away any remaining blocking buffer, the required primary antibody (COP1 [Bethyl Laboraties], ATGL [Cell Signalling Technology] or Actin[Cell Signalling Technology]) prepared with 1×PBST, 1% Bovine Serum Albumin and 0.04% Sodium Azide was added to the membrane and incubated overnight at 4° C. The next day, the membrane was again washed multiple times with 1×PBST to remove any unbound primary antibody. The membrane was then incubated with goat anti-rabbit secondary antibody (Genei) for 1 hour at room temperature and washed again for multiple times with 1×PBST. […]

EC50 [2] [nM] | Structure (SMILES) | Reduction in Lipid Droplets [1] | Increase in ATGL level [2] | ATGL level in HepG2 cells [2] | Number of lipid droplets [1]
 | COCCn1c(-c2ccc(OC)cc2)nc2ccc(NC(=O)Nc3cccc(C(C)=O)c3)cc2c1=O [Compound 119, 1-(3-acetylphenyl)-3-(3-(2-methoxyethyl)-2-(4-methoxyphenyl)-4-oxo-3,4-dihydroquinazolin-6-yl)urea] | + | + |  | 
 | COCCn1cnc2ccc(NC(=O)Nc3ccc(C(=O)N4CCCC4)cc3)cc2c1=O [Compound 20, 1-(3-(2-methoxyethyl)-4-oxo-3,4-dihydroquinazolin-6-yl)-3-(4-(pyrrolidine-1-carbonyl)phenyl)urea] | ++ | ++ | ability to increase ATGL level | 
 | COCCn1cnc2ccc(NC(=O)Nc3cccc(NC(C)=O)c3)cc2c1=O [Compound 22, N-(3-(3-(3-(2-methoxyethyl)-4-oxo-3,4-dihydroquinazolin-6-yl)ureido)phenyl)acetamide] | + | + |  | 
 | COCCCn1cnc2ccc(NC(=O)Nc3cccc(C(C)=O)c3)cc2c1=O [Compound 89, 1-(3-acetylphenyl)-3-(3-(3-methoxypropyl)-4-oxo-3,4-dihydroquinazolin-6-yl)urea] | +++ | + | some sort of increase in ATGL level | reduction in lipid droplets
 | CCCCn1cnc2ccc(NC(=O)Nc3cccc(C(C)=O)c3)cc2c1=O [Compound 175, 1-(3-acetylphenyl)-3-(3-butyl-4-oxo-3,4-dihydroquinazolin-6-yl)urea] | + | + | did not increase ATGL level | reduced lipid droplets
 | COCCn1cnc2ccc(NC(=O)Nc3cccc([N+](=O)[O-])c3)cc2c1=O [Compound 8, 1-(3-(2-methoxyethyl)-4-oxo-3,4-dihydroquinazolin-6-yl)-3-(3-nitrophenyl)urea] | ++ | + |  | 
 | COCCn1cnc2cc(NC(=O)Nc3ccc(C(C)=O)cc3)ccc2c1=O [Compound 193, 1-(4-acetylphenyl)-3-(3-(2-methoxyethyl)-4-oxo-3,4-dihydroquinazolin-7-yl)urea] | + | + |  | 
 | COCCn1cnc2ccc(NC(=O)Nc3cccc(N(C)C(C)=O)c3)cc2c1=O [Compound 23, N-(3-(3-(3-(2-methoxyethyl)-4-oxo-3,4-dihydroquinazolin-6-yl)ureido)phenyl)-N-methylacetamide] | ++ | ++++ | increased ATGL level | 
 | CCOCCn1cnc2ccc(NC(=O)Nc3cccc(C(C)=O)c3)cc2c1=O [Compound 93, 1-(3-acetylphenyl)-3-(3-(2-ethoxyethyl)-4-oxo-3,4-dihydroquinazolin-6-yl)urea] | +++ | ++++ | some sort of increase in ATGL level | reduction in lipid droplets
 | COCCn1cnc2ccc(NC(=O)N(O)c3cccc(C(C)=O)c3)cc2c1=O [Compound 308, 1-(3-acetylphenyl)-1-hydroxy-3-(3-(2-methoxyethyl)-4-oxo-3,4-dihydroquinazolin-6-yl)urea] |  |  | increased ATGL level | 
70.3 | COCCn1c(-c2cnccn2)nc2ccc(NC(=O)Nc3cccc(C(C)=O)c3)cc2c1=O [Compound 223, 1-(3-acetylphenyl)-3-(3-(2-methoxyethyl)-4-oxo-2-(pyrazin-2-yl)-3,4-dihydroquinazolin-6-yl)urea] |  |  | increased ATGL level | 
 | CC(=O)c1cccc(NC(=O)Nc2ccc3ncn(N4CCOCC4)c(=O)c3c2)c1 [Compound 340, 1-(3-acetylphenyl)-3-(3-morpholino-4-oxo-3,4-dihydroquinazolin-6-yl)urea] |  | + |  | 
 | COCCn1cnc2ccc(NC(=O)Nc3cccc(C(C)=O)c3)c(C3CCN(C(=O)OC(C)(C)C)CC3)c2c1=O [Compound 61, tert-butyl 4-(6-(3-(3-acetylphenyl)ureido)-3-(2-methoxyethyl)-4-oxo-3,4-dihydroquinazolin-5-yl)piperidine-1-carboxylate] |  | + |  | 
 | COCCn1cnc2ccc(NC(=O)Nc3cccc(C(C)=O)c3)c(-c3ccc(C(F)(F)F)cc3)c2c1=O [Compound 66, 1-(3-acetylphenyl)-3-(3-(2-methoxyethyl)-4-oxo-5-(4-(trifluoromethyl)phenyl)-3,4-dihydroquinazolin-6-yl)urea] |  | ++ |  | 
 | CC(=O)c1cccc(NC(=O)Nc2ccc3ncn(CCOC(C)C)c(=O)c3c2)c1 [Compound 183, 1-(3-acetylphenyl)-3-(3-(2-isopropoxyethyl)-4-oxo-3,4-dihydroquinazolin-6-yl)urea] |  | +++ |  | 
 | COCCn1cnc2ccc(NC(=O)Nc3cccc(C(C)=O)c3)c(-c3ccc(OC)cc3)c2c1=O [Compound 64, 1-(3-acetylphenyl)-3-(3-(2-methoxyethyl)-5-(4-methoxyphenyl)-4-oxo-3,4-dihydroquinazolin-6-yl)urea] |  | + |  | 
 | COCC(C)n1c(C)nc2ccc(NC(=O)Nc3cccc(C(C)=O)c3)cc2c1=O (stereo not shown) [Compound 285, 1-(3-acetylphenyl)-3-(3-(1-methoxypropan-2-yl)-2-methyl-4-oxo-3,4-dihydroquinazolin-6-yl)urea] |  | + |  | 
 | CC(=O)c1cccc(NC(=O)Nc2ccc3ncn(C4CCCCC4)c(=O)c3c2)c1 [Compound 187, 1-(3-acetylphenyl)-3-(3-cyclohexyl-4-oxo-3,4-dihydroquinazolin-6-yl)urea] |  | +++ |  | 
290 | COCCn1c(C2CCN(C(=O)OC(C)(C)C)CC2)nc2ccc(NC(=O)Nc3cccc(C(C)=O)c3)cc2c1=O [Compound 299, tert-butyl 4-(6-(3-(3-acetylphenyl)ureido)-3-(2-methoxyethyl)-4-oxo-3,4-dihydroquinazolin-2-yl)piperidine-1-carboxylate] |  |  | increased ATGL level | 
 | COCCn1c(C)nc2ccc(NC(=O)Nc3cccc(C(C)=O)c3)c(Br)c2c1=O [Compound 345, 1-(3-acetylphenyl)-3-(5-bromo-3-(2-methoxyethyl)-2-methyl-4-oxo-3,4-dihydroquinazolin-6-yl)urea] |  | + |  | 
 | COCCn1cnc2ccc(NC(=O)Nc3ccc(C(F)(F)F)cc3)cc2c1=O [Compound 38, 1-(3-(2-methoxyethyl)-4-oxo-3,4-dihydroquinazolin-6-yl)-3-(4-(trifluoromethyl)phenyl)urea] |  | ++ |  | 

Reference: patent US12528777B2, “Quinazolinones derivatives for treatment of non-alcoholic fatty liver disease, preparation and use thereof” (Council of Scientific and Industrial Research, priority 2020, dated 2026)
